Data reported in patent US20230293407A1, “Compositions Comprising (Bio)-Alkanediols with Antimicrobials for Product Protection” (Symrise AG, priority 2020, published 2023).

Tests used:
Experiment in all cases: preservation efficacy test (PET), European Pharmacopoeia 5.1.3
Assay type in all cases: cell-based
Candida albicans = settings: for count at 14 days / count at 28 days / count at 7 days: CA, use concentration in label
Staphylococcus aureus = settings: for germ count SA, 2 days / germ count SA, 7 days / germ count SA, 14 days / germ count SA, 28 days: o/w emulsion (Table 53); for SA germ count, 2 days / SA germ count, 7 days / SA germ count, 14 days / SA germ count, 28 days: substance at given % in test formulation; for count at 2 days / count at 7 days / count at 14 days / count at 28 days: SA, use concentration in label
Escherichia coli = settings: for germ count EC, 2 days / germ count EC, 7 days / germ count EC, 14 days / germ count EC, 28 days: o/w emulsion (Table 53); for EC germ count, 2 days / EC germ count, 7 days / EC germ count, 14 days / EC germ count, 28 days: substance at given % in test formulation; for count at 2 days / count at 7 days / count at 14 days / count at 28 days: EC, use concentration in label
Pseudomonas aeruginosa = settings: for germ count PA, 2 days / germ count PA, 7 days / germ count PA, 14 days / germ count PA, 28 days: o/w emulsion (Table 53); for count at 2 days / count at 7 days / count at 14 days / count at 28 days: PA, use concentration in label
[1] = 28 days after inoculation, o/w emulsion (Table 53)
[2] = 2 days after inoculation, substance at given % in test formulation
[3] = 7 days after inoculation, substance at given % in test formulation
[4] = 14 days after inoculation, substance at given % in test formulation
[5] = 28 days after inoculation, substance at given % in test formulation

SMILES: CCCCCCC(O)C(C)O (stereo not shown) [0.2% 2,3 Nonanediol]
- germ count CA, 7 days (Candida albicans; 7 days after inoculation, o/w emulsion (Table 53)): 440.000
- germ count CA, 14 days (Candida albicans; 14 days after inoculation, o/w emulsion (Table 53)): 160.000
- germ count CA, 28 days (Candida albicans; [1]): 3.800
- germ count SA, 2 days (Staphylococcus aureus; 2 days after inoculation): 880
- germ count SA, 7 days (Staphylococcus aureus; 7 days after inoculation): 1
- germ count SA, 14 days (Staphylococcus aureus; 14 days after inoculation): 1
- germ count SA, 28 days (Staphylococcus aureus; 28 days after inoculation): 1
- germ count EC, 2 days (Escherichia coli; 2 days after inoculation): 860.000
- germ count EC, 7 days (Escherichia coli; 7 days after inoculation): 230.000
- germ count EC, 14 days (Escherichia coli; 14 days after inoculation): 760
- germ count EC, 28 days (Escherichia coli; 28 days after inoculation): 1
- germ count PA, 2 days (Pseudomonas aeruginosa; 2 days after inoculation): 1
- germ count PA, 7 days (Pseudomonas aeruginosa; 7 days after inoculation): 1
- germ count PA, 14 days (Pseudomonas aeruginosa; 14 days after inoculation): 1
- germ count PA, 28 days (Pseudomonas aeruginosa; 28 days after inoculation): 1

SMILES: CCCCCCCC(=O)OCC(O)CO (stereo not shown) [0.2% glyceryl caprylate]
- CA germ count, 2 days (Candida albicans; [2]): 12.000
- CA germ count, 7 days (Candida albicans; [3]): 260
- CA germ count, 14 days (Candida albicans; [4]): 1
- CA germ count, 28 days (Candida albicans; [5]): 1
- SA germ count, 2 days (Staphylococcus aureus; 2 days after inoculation): 1
- SA germ count, 7 days (Staphylococcus aureus; 7 days after inoculation): 1
- SA germ count, 14 days (Staphylococcus aureus; 14 days after inoculation): 1
- SA germ count, 28 days (Staphylococcus aureus; 28 days after inoculation): 1
- EC germ count, 2 days (Escherichia coli; 2 days after inoculation): 1
- EC germ count, 7 days (Escherichia coli; 7 days after inoculation): 1
- EC germ count, 14 days (Escherichia coli; 14 days after inoculation): 1
- EC germ count, 28 days (Escherichia coli; 28 days after inoculation): 1
- PA germ count, 2 days (Pseudomonas aeruginosa; [2]): 1
- PA germ count, 7 days (Pseudomonas aeruginosa; [3]): 1
- PA germ count, 14 days (Pseudomonas aeruginosa; [4]): 1
- PA germ count, 28 days (Pseudomonas aeruginosa; [5]): 1

SMILES: CCCCCC(O)CO (stereo not shown) [0.3% 1.2-heptanediol]
- count at 14 days (Candida albicans; 14 days after inoculation): 260.000
- count at 28 days (Candida albicans; 28 days after inoculation): 150.000
- count at 2 days (Staphylococcus aureus; 2 days after inoculation): 16.000
- count at 7 days (Staphylococcus aureus; 7 days after inoculation): 1
- count at 14 days (Staphylococcus aureus; 14 days after inoculation): 1
- count at 28 days (Staphylococcus aureus; 28 days after inoculation): 1
- count at 2 days (Escherichia coli; 2 days after inoculation): 130.000
- count at 7 days (Escherichia coli; 7 days after inoculation): 2.400
- count at 14 days (Escherichia coli; 14 days after inoculation): 1
- count at 28 days (Escherichia coli; 28 days after inoculation): 1
- count at 2 days (Pseudomonas aeruginosa; 2 days after inoculation): 1
- count at 7 days (Pseudomonas aeruginosa; 7 days after inoculation): 1
- count at 14 days (Pseudomonas aeruginosa; 14 days after inoculation): 1
- count at 28 days (Pseudomonas aeruginosa; 28 days after inoculation): 1

SMILES: CC(C)=CCC/C(C)=C/CC/C(C)=C/CO [0.3% farnesol]
- count at 7 days (Candida albicans; 7 days after inoculation): 880.000
- count at 2 days (Staphylococcus aureus; 2 days after inoculation): 720.000
- count at 7 days (Staphylococcus aureus; 7 days after inoculation): 52.000
- count at 14 days (Staphylococcus aureus; 14 days after inoculation): 100.000
- count at 28 days (Staphylococcus aureus; 28 days after inoculation): 33.000
- count at 7 days (Escherichia coli; 7 days after inoculation): 390.000
- count at 14 days (Escherichia coli; 14 days after inoculation): 12.000
- count at 28 days (Escherichia coli; 28 days after inoculation): 1.000
- count at 2 days (Pseudomonas aeruginosa; 2 days after inoculation): 460.000
- count at 7 days (Pseudomonas aeruginosa; 7 days after inoculation): 380.000
- count at 14 days (Pseudomonas aeruginosa; 14 days after inoculation): 610.000
- count at 28 days (Pseudomonas aeruginosa; 28 days after inoculation): 65.000

SMILES: CCCCCC(O)CO (stereo not shown) [0.4 % 1,2-heptanediol]
- count at 7 days (Candida albicans; 7 days after inoculation): 39.000
- count at 14 days (Candida albicans; 14 days after inoculation): 590
- count at 28 days (Candida albicans; 28 days after inoculation): 27
- count at 2 days (Staphylococcus aureus; 2 days after inoculation): 1
- count at 7 days (Staphylococcus aureus; 7 days after inoculation): 1
- count at 14 days (Staphylococcus aureus; 14 days after inoculation): 1
- count at 28 days (Staphylococcus aureus; 28 days after inoculation): 1
- count at 2 days (Escherichia coli; 2 days after inoculation): 140
- count at 7 days (Escherichia coli; 7 days after inoculation): 1
- count at 14 days (Escherichia coli; 14 days after inoculation): 1
- count at 28 days (Escherichia coli; 28 days after inoculation): 1
- count at 2 days (Pseudomonas aeruginosa; 2 days after inoculation): 1
- count at 7 days (Pseudomonas aeruginosa; 7 days after inoculation): 1
- count at 14 days (Pseudomonas aeruginosa; 14 days after inoculation): 1
- count at 28 days (Pseudomonas aeruginosa; 28 days after inoculation): 1

SMILES: CCCCC(O)C(C)O (stereo not shown) [0.4% 2,3 Heptandiol]
- count at 14 days (Candida albicans; 14 days after inoculation): 39.000
- count at 28 days (Candida albicans; 28 days after inoculation): 76.000
- count at 7 days (Staphylococcus aureus; 7 days after inoculation): 1
- count at 14 days (Staphylococcus aureus; 14 days after inoculation): 1
- count at 28 days (Staphylococcus aureus; 28 days after inoculation): 1
- count at 7 days (Escherichia coli; 7 days after inoculation): 1
- count at 14 days (Escherichia coli; 14 days after inoculation): 1
- count at 28 days (Escherichia coli; 28 days after inoculation): 1
- count at 2 days (Pseudomonas aeruginosa; 2 days after inoculation): 1
- count at 7 days (Pseudomonas aeruginosa; 7 days after inoculation): 1
- count at 14 days (Pseudomonas aeruginosa; 14 days after inoculation): 1
- count at 28 days (Pseudomonas aeruginosa; 28 days after inoculation): 1

SMILES: CC(C)(C)C(=O)C(Oc1ccc(Cl)cc1)n1ccnc1 (stereo not shown) [0.4% Climbazole]
- count at 14 days (Candida albicans; 14 days after inoculation): 760.000
- count at 28 days (Candida albicans; 28 days after inoculation): 72.000
- count at 2 days (Staphylococcus aureus; 2 days after inoculation): 340.000
- count at 7 days (Staphylococcus aureus; 7 days after inoculation): 1
- count at 14 days (Staphylococcus aureus; 14 days after inoculation): 1
- count at 28 days (Staphylococcus aureus; 28 days after inoculation): 1
- count at 2 days (Escherichia coli; 2 days after inoculation): 940.000
- count at 7 days (Escherichia coli; 7 days after inoculation): 810.000
- count at 14 days (Escherichia coli; 14 days after inoculation): 690
- count at 28 days (Escherichia coli; 28 days after inoculation): 1
- count at 28 days (Pseudomonas aeruginosa; 28 days after inoculation): 940.000

SMILES: CC(CO)CCCC1CCCCC1 (stereo not shown) [1.0% 2-Methyl 5-Cyclohexylpentanol]
- CA germ count, 28 days (Candida albicans; [5]): 630.000
- SA germ count, 2 days (Staphylococcus aureus; 2 days after inoculation): 110.000
- SA germ count, 7 days (Staphylococcus aureus; 7 days after inoculation): 760
- SA germ count, 14 days (Staphylococcus aureus; 14 days after inoculation): 1
- SA germ count, 28 days (Staphylococcus aureus; 28 days after inoculation): 1
- EC germ count, 2 days (Escherichia coli; 2 days after inoculation): 960.000
- EC germ count, 7 days (Escherichia coli; 7 days after inoculation): 490.000
- EC germ count, 14 days (Escherichia coli; 14 days after inoculation): 310.000
- EC germ count, 28 days (Escherichia coli; 28 days after inoculation): 380.000
- PA germ count, 2 days (Pseudomonas aeruginosa; [2]): 670.000
- PA germ count, 7 days (Pseudomonas aeruginosa; [3]): 570.000
- PA germ count, 14 days (Pseudomonas aeruginosa; [4]): 780.000

SMILES: CCCCC(CC)COCC(O)CO (stereo not shown) [Ethylhexlglycerin, Ethylhexylglycerin, reference compound]
- germ count CA, 28 days (Candida albicans; [1]): 950.000
- number of microorganisms, 28 days (Candida albicans; PET, Candida albicans (CA), 28 days after inoculation): 950.000
- germ count SA, 2 days (Staphylococcus aureus; 2 days after inoculation): 240.000
- germ count SA, 7 days (Staphylococcus aureus; 7 days after inoculation): 36
- germ count SA, 14 days (Staphylococcus aureus; 14 days after inoculation): 1
- germ count SA, 28 days (Staphylococcus aureus; 28 days after inoculation): 1
- number of microorganisms, 2 days (Staphylococcus aureus; PET, Staphylococcus aureus (SA), 2 days after inoculation): 240.000
- number of microorganisms, 7 days (Staphylococcus aureus; PET, Staphylococcus aureus (SA), 7 days after inoculation): 36
- number of microorganisms, 14 days (Staphylococcus aureus; PET, Staphylococcus aureus (SA), 14 days after inoculation): 1
- number of microorganisms, 28 days (Staphylococcus aureus; PET, Staphylococcus aureus (SA), 28 days after inoculation): 1
- germ count EC, 2 days (Escherichia coli; 2 days after inoculation): 10.000
- germ count EC, 7 days (Escherichia coli; 7 days after inoculation): 82
- germ count EC, 14 days (Escherichia coli; 14 days after inoculation): 1
- germ count EC, 28 days (Escherichia coli; 28 days after inoculation): 1
- number of microorganisms, 2 days (Escherichia coli; PET, Escherichia coli (EC), 2 days after inoculation): 10.000
- number of microorganisms, 7 days (Escherichia coli; PET, Escherichia coli (EC), 7 days after inoculation): 82
- number of microorganisms, 14 days (Escherichia coli; PET, Escherichia coli (EC), 14 days after inoculation): 1
- number of microorganisms, 28 days (Escherichia coli; PET, Escherichia coli (EC), 28 days after inoculation): 1
- germ count PA, 2 days (Pseudomonas aeruginosa; 2 days after inoculation): 1
- germ count PA, 7 days (Pseudomonas aeruginosa; 7 days after inoculation): 1
- germ count PA, 14 days (Pseudomonas aeruginosa; 14 days after inoculation): 1
- germ count PA, 28 days (Pseudomonas aeruginosa; 28 days after inoculation): 1
- number of microorganisms, 2 days (Pseudomonas aeruginosa; PET, Pseudomonas aeruginosa (PA), 2 days after inoculation): 1
- number of microorganisms, 7 days (Pseudomonas aeruginosa; PET, Pseudomonas aeruginosa (PA), 7 days after inoculation): 1
- number of microorganisms, 14 days (Pseudomonas aeruginosa; PET, Pseudomonas aeruginosa (PA), 14 days after inoculation): 1
- number of microorganisms, 28 days (Pseudomonas aeruginosa; PET, Pseudomonas aeruginosa (PA), 28 days after inoculation): 1
